Data set [1] can be described thus: Saturated solubility (Cs) measured to establish sink conditions. Type of data set: physicochemical. Here is the method:
Prior to carrying out in vitro release studies, the saturated solubility of diltiazem HCI was measured in order to establish sink conditions.
Prior to carrying out in vitro release studies, the saturated solubility of diltiazem base was measured in order to establish sink conditions. […] The microsphere systems studied had diltiazem base starting loadings of 10% w/w, 20% w/w, 30% w/w, and 50% w/w, D 50% of […], respectively, and were prepared by Method A using the Ultra Turrax.

For data set [2] the following is noted: cited from earlier work.

In brackets after ≈: the same amount, converted by molar mass. Where two headings read alike, the source gives them in different places.

With `COc1ccc([C@@H]2Sc3ccccc3N(CCN(C)C)C(=O)[C@@H]2OC(C)=O)cc1` [Diltiazem base], the solubility was 227 mg/mL (≈ 549 mM) in data set [1] (pH 1.2, simulated gastric fluid, thermodynamic from solid) and 1.06 mg/mL (≈ 2.56 mM) in data set [1] (pH 7.4, aqueous buffer, thermodynamic from solid). Besides, the pKa result in data set [2] is listed as “around 8”.

Regarding `COc1ccc([C@@H]2Sc3ccccc3N(CCN(C)C)C(=O)[C@@H]2OC(C)=O)cc1` [Diltiazem HCI], the solubility in data set [1] (aqueous buffer, thermodynamic from solid, phosphate buffer pH 7.4, read-out: Cs (saturated solubility)) was 2.39 mg/mL (≈ 5.77 mM); in data set [1] (pH 1.2, read-out: Cs (saturated solubility)), > 1000 mg/mL.

Values taken from EP0754034B1, “EFFERVESCENT PHARMACEUTICAL FORMULATIONS CONTAINING CONTROLLED RELEASE BIODEGRADABLE MICROCAPSULES” (ELAN CORPORATION, Plc, priority 1994, dated 1995).
